Assay results published in the supplement of paper PMC8882468.

Each compound was assayed on HCI-024 (organoid from a breast cancer xenograft) (assay: CTG-3D luminescence at 96 h relative to day-0 seeding control (ratio to day 0); higher = more growth / less cytotoxicity; PDxO 3D drug screen (set 2), 96 h, CTG-3D normalised to day-0 seeding control.). Conditions: 10 µM; days in culture: 231.
For `CCOc1ccn(-c2ccc(F)cc2)c(=O)c1C(=O)Nc1ccc(Oc2ccnc(N)c2Cl)c(F)c1` [ASLAN002], the “CTG-3D luminescence at 96 h” value was 1.02.
For `C[C@@H](Nc1cc(F)cc(F)c1)c1cc(C(=O)N(C)C)cc2c(=O)cc(N3CCOCC3)oc12` [AZD-8186], the “CTG-3D luminescence at 96 h” value was 0.93.
`COc1cccc2c1C(=O)c1c(O)c3c(c(O)c1C2=O)C[C@@](O)(C(=O)CO)C[C@@H]3O[C@H]1C[C@H](N)[C@@H](O)[C@H](C)O1` [epirubicin] was tested, and the “CTG-3D luminescence at 96 h” value was 0.141.
`CC(=O)c1c(C)c2cnc(Nc3ccc(N4CCNCC4)cn3)nc2n(C2CCCC2)c1=O` [palbociclib] was tested, and the “CTG-3D luminescence at 96 h” value was 0.74.
In the case of `O=C(c1cc(Cc2n[nH]c(=O)c3ccccc23)ccc1F)N1CCN(C(=O)C2CC2)CC1` [olaparib], the “CTG-3D luminescence at 96 h” value is reported as 1.27.

Same assay, conditions: 10 µM; days in culture: 254
In the case of `CCOc1ccn(-c2ccc(F)cc2)c(=O)c1C(=O)Nc1ccc(Oc2ccnc(N)c2Cl)c(F)c1` [ASLAN002], the “CTG-3D luminescence at 96 h” value is reported as 1.96.
For `C[C@@H](Nc1cc(F)cc(F)c1)c1cc(C(=O)N(C)C)cc2c(=O)cc(N3CCOCC3)oc12` [AZD-8186], the “CTG-3D luminescence at 96 h” value was 1.55.
In the case of `COc1cccc2c1C(=O)c1c(O)c3c(c(O)c1C2=O)C[C@@](O)(C(=O)CO)C[C@@H]3O[C@H]1C[C@H](N)[C@@H](O)[C@H](C)O1` [epirubicin], the “CTG-3D luminescence at 96 h” value is reported as 0.165.
`CC(=O)c1c(C)c2cnc(Nc3ccc(N4CCNCC4)cn3)nc2n(C2CCCC2)c1=O` [palbociclib] was tested, and the “CTG-3D luminescence at 96 h” value was 1.25.
With `O=C(c1cc(Cc2n[nH]c(=O)c3ccccc23)ccc1F)N1CCN(C(=O)C2CC2)CC1` [olaparib] the “CTG-3D luminescence at 96 h” value was 1.07.

Same assay, conditions: 100 µM; days in culture: 202
In the case of `CCOc1ccn(-c2ccc(F)cc2)c(=O)c1C(=O)Nc1ccc(Oc2ccnc(N)c2Cl)c(F)c1` [ASLAN002], the “CTG-3D luminescence at 96 h” value is reported as 0.658.
For `C[C@@H](Nc1cc(F)cc(F)c1)c1cc(C(=O)N(C)C)cc2c(=O)cc(N3CCOCC3)oc12` [AZD-8186], the “CTG-3D luminescence at 96 h” value was 0.461.
`COc1cccc2c1C(=O)c1c(O)c3c(c(O)c1C2=O)C[C@@](O)(C(=O)CO)C[C@@H]3O[C@H]1C[C@H](N)[C@@H](O)[C@H](C)O1` [epirubicin] was tested, and the “CTG-3D luminescence at 96 h” value was 0.0124.
In the case of `CC(=O)c1c(C)c2cnc(Nc3ccc(N4CCNCC4)cn3)nc2n(C2CCCC2)c1=O` [palbociclib], the “CTG-3D luminescence at 96 h” value is reported as 0.337.
In the case of `O=C(c1cc(Cc2n[nH]c(=O)c3ccccc23)ccc1F)N1CCN(C(=O)C2CC2)CC1` [olaparib], the “CTG-3D luminescence at 96 h” value is reported as 0.38.

Same assay, conditions: 100 µM; days in culture: 231
In the case of `CCOc1ccn(-c2ccc(F)cc2)c(=O)c1C(=O)Nc1ccc(Oc2ccnc(N)c2Cl)c(F)c1` [ASLAN002], the “CTG-3D luminescence at 96 h” value is reported as 0.471.
In the case of `C[C@@H](Nc1cc(F)cc(F)c1)c1cc(C(=O)N(C)C)cc2c(=O)cc(N3CCOCC3)oc12` [AZD-8186], the “CTG-3D luminescence at 96 h” value is reported as 0.399.
For `COc1cccc2c1C(=O)c1c(O)c3c(c(O)c1C2=O)C[C@@](O)(C(=O)CO)C[C@@H]3O[C@H]1C[C@H](N)[C@@H](O)[C@H](C)O1` [epirubicin], the “CTG-3D luminescence at 96 h” value was 0.0266.
With `CC(=O)c1c(C)c2cnc(Nc3ccc(N4CCNCC4)cn3)nc2n(C2CCCC2)c1=O` [palbociclib] the “CTG-3D luminescence at 96 h” value was 0.498.
For `O=C(c1cc(Cc2n[nH]c(=O)c3ccccc23)ccc1F)N1CCN(C(=O)C2CC2)CC1` [olaparib], the “CTG-3D luminescence at 96 h” value was 0.836.

Same assay, conditions: 100 µM; days in culture: 254
`CCOc1ccn(-c2ccc(F)cc2)c(=O)c1C(=O)Nc1ccc(Oc2ccnc(N)c2Cl)c(F)c1` [ASLAN002] was tested, and the “CTG-3D luminescence at 96 h” value was 1.
`C[C@@H](Nc1cc(F)cc(F)c1)c1cc(C(=O)N(C)C)cc2c(=O)cc(N3CCOCC3)oc12` [AZD-8186] was tested, and the “CTG-3D luminescence at 96 h” value was 0.743.
For `COc1cccc2c1C(=O)c1c(O)c3c(c(O)c1C2=O)C[C@@](O)(C(=O)CO)C[C@@H]3O[C@H]1C[C@H](N)[C@@H](O)[C@H](C)O1` [epirubicin], the “CTG-3D luminescence at 96 h” value was 0.0227.
`CC(=O)c1c(C)c2cnc(Nc3ccc(N4CCNCC4)cn3)nc2n(C2CCCC2)c1=O` [palbociclib] was tested, and the “CTG-3D luminescence at 96 h” value was 0.688.
With `O=C(c1cc(Cc2n[nH]c(=O)c3ccccc23)ccc1F)N1CCN(C(=O)C2CC2)CC1` [olaparib] the “CTG-3D luminescence at 96 h” value was 0.671.

Same assay, conditions: 625 fM; days in culture: 202
`CCOc1ccn(-c2ccc(F)cc2)c(=O)c1C(=O)Nc1ccc(Oc2ccnc(N)c2Cl)c(F)c1` [ASLAN002] was tested, and the “CTG-3D luminescence at 96 h” value was 1.61.
With `C[C@@H](Nc1cc(F)cc(F)c1)c1cc(C(=O)N(C)C)cc2c(=O)cc(N3CCOCC3)oc12` [AZD-8186] the “CTG-3D luminescence at 96 h” value was 1.39.
With `COc1cccc2c1C(=O)c1c(O)c3c(c(O)c1C2=O)C[C@@](O)(C(=O)CO)C[C@@H]3O[C@H]1C[C@H](N)[C@@H](O)[C@H](C)O1` [epirubicin] the “CTG-3D luminescence at 96 h” value was 0.718.
For `CC(=O)c1c(C)c2cnc(Nc3ccc(N4CCNCC4)cn3)nc2n(C2CCCC2)c1=O` [palbociclib], the “CTG-3D luminescence at 96 h” value was 1.22.
With `O=C(c1cc(Cc2n[nH]c(=O)c3ccccc23)ccc1F)N1CCN(C(=O)C2CC2)CC1` [olaparib] the “CTG-3D luminescence at 96 h” value was 1.05.

Same assay, conditions: 625 fM; days in culture: 231
For `CCOc1ccn(-c2ccc(F)cc2)c(=O)c1C(=O)Nc1ccc(Oc2ccnc(N)c2Cl)c(F)c1` [ASLAN002], the “CTG-3D luminescence at 96 h” value was 1.06.
With `C[C@@H](Nc1cc(F)cc(F)c1)c1cc(C(=O)N(C)C)cc2c(=O)cc(N3CCOCC3)oc12` [AZD-8186] the “CTG-3D luminescence at 96 h” value was 1.35.
`COc1cccc2c1C(=O)c1c(O)c3c(c(O)c1C2=O)C[C@@](O)(C(=O)CO)C[C@@H]3O[C@H]1C[C@H](N)[C@@H](O)[C@H](C)O1` [epirubicin] was tested, and the “CTG-3D luminescence at 96 h” value was 1.79.
`CC(=O)c1c(C)c2cnc(Nc3ccc(N4CCNCC4)cn3)nc2n(C2CCCC2)c1=O` [palbociclib] was tested, and the “CTG-3D luminescence at 96 h” value was 1.21.
In the case of `O=C(c1cc(Cc2n[nH]c(=O)c3ccccc23)ccc1F)N1CCN(C(=O)C2CC2)CC1` [olaparib], the “CTG-3D luminescence at 96 h” value is reported as 1.4.

Same assay, conditions: 625 fM; days in culture: 254
For `CCOc1ccn(-c2ccc(F)cc2)c(=O)c1C(=O)Nc1ccc(Oc2ccnc(N)c2Cl)c(F)c1` [ASLAN002], the “CTG-3D luminescence at 96 h” value was 2.45.
For `C[C@@H](Nc1cc(F)cc(F)c1)c1cc(C(=O)N(C)C)cc2c(=O)cc(N3CCOCC3)oc12` [AZD-8186], the “CTG-3D luminescence at 96 h” value was 1.01.
With `COc1cccc2c1C(=O)c1c(O)c3c(c(O)c1C2=O)C[C@@](O)(C(=O)CO)C[C@@H]3O[C@H]1C[C@H](N)[C@@H](O)[C@H](C)O1` [epirubicin] the “CTG-3D luminescence at 96 h” value was 1.93.
`CC(=O)c1c(C)c2cnc(Nc3ccc(N4CCNCC4)cn3)nc2n(C2CCCC2)c1=O` [palbociclib] was tested, and the “CTG-3D luminescence at 96 h” value was 2.68.
In the case of `O=C(c1cc(Cc2n[nH]c(=O)c3ccccc23)ccc1F)N1CCN(C(=O)C2CC2)CC1` [olaparib], the “CTG-3D luminescence at 96 h” value is reported as 1.54.
